Experimental data as given in patent publication US8933113B2 (Merck Sharp & Dohme Corp., priority 2011, dated 2015).

Target: T1, full-length human Mineralocorticoid Receptor (MR) (Homo sapiens, UniProt P08235)
T1 construct: host or cells: PathHunter CHO-K1 cells
T1 sequence (P08235 1-984): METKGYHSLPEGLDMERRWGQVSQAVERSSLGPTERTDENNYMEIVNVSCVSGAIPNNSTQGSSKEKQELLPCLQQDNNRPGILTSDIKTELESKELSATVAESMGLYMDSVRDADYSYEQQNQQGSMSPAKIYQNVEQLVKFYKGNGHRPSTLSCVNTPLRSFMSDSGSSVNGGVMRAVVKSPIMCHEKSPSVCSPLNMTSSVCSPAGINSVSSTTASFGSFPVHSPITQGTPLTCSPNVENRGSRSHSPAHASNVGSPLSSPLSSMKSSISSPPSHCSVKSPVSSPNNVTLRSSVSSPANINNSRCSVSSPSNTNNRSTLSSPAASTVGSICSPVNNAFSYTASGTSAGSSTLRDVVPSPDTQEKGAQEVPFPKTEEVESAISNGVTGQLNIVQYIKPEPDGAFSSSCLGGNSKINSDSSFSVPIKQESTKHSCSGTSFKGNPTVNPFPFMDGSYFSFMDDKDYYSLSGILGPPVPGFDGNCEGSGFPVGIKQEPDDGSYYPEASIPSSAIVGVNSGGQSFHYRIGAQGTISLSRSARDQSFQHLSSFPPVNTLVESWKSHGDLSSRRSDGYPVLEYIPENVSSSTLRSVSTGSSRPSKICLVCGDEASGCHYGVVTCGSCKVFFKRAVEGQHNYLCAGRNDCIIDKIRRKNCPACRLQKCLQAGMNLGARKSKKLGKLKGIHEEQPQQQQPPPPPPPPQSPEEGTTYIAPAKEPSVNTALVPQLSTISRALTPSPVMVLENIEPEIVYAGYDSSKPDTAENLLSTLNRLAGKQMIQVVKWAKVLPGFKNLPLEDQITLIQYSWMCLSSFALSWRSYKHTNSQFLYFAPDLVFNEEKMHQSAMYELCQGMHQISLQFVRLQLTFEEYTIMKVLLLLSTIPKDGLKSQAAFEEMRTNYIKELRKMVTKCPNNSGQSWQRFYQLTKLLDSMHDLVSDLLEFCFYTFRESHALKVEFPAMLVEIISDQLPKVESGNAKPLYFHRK
Test: human MR NH Pro assay (PathHunter Protein:Protein interaction assay), MR antagonist activity
Format: cell-based
Conditions: not given
Source text: The activity of the compounds of the present invention regarding mineralocorticoid receptor antagonism can be evaluated using the following assay.
Assessment of MR Potency in HMR NH Pro Assay
The human MR NH Pro assay is a commercially available PathHunter™ Protein:Protein interaction assay (DiscoveRx; http://www.discoverx.com/nhrs/prod-nhrs.php) that measures the ability of compounds to antagonize full-length human Mineralocorticoid Receptor (MR) binding to a coactivator peptide.
6. Test compounds are titrated starting at 4.4 mM, 10-point titration in 1:3 dilution.
3. Add 5 μL 6× agonist (final aldosterone concentration should be about 0.3 nM to about 1.0 nM) to all wells (using the PlateMate Plus.)
• (ThermoFisher) (except those wells in columns 23 and 24) 4. Add 5 uL of assay media to all wells in column 23 and 24. 5. Incubate 6 hrs at 37° C., 5% CO2. 6. Add 15 uL 3× DiscoveRx detection reagent to each well. 7. Incubate 1 hour at room temperature (keep plates stored in the dark). 8. Read plates on Envision (PerkinElmer) luminesence plate reader and analyze using ADA.

SMILES | IC50 [nM]
CCC(C(=O)NCCCl)(c1ccc(Cl)cc1)n1ccc2c(NS(C)(=O)=O)cccc21 (single isomer, unassigned) [Compound 148, N-(2-chloroethyl)-2-(4-chlorophenyl)-2-(4-(methylsulfonamido)-1H-indol-1-yl)butanamide] | 100 to 500

Same assay, conditions: PathHunter CHO-K1 cells overexpressing human MR; aldosterone about 0.3 nM; 6 hours at 37° C.; luminescence; read-out: Primary Assay IP rating (IP = inflection point for a given dose-response titration curve)

SMILES | IC50 [nM]
CCn1nnc(C(CC)(c2ccc(Cl)cc2)n2ccc3c(NS(C)(=O)=O)cccc32)n1 (single isomer, unassigned) [Compound 179, N-(1-(1-(4-chlorophenyl)-1-(2-ethyl-2H-tetrazol-5-yl)propyl)-1H-indol-4-yl)methane sulfonamide] | < 100
COC(=O)C(c1ccc(F)cc1Cl)n1ccc2c([N+](=O)[O-])cccc21 (centres unmarked) [Compound 2, methyl (2-chloro-4-fluorophenyl)(4-nitro-1H-indol-1-yl)acetate] | 100 to 500
CCC(CCC#N)(c1ccccc1)n1ncc2c(NS(C)(=O)=O)cc(F)cc21 (centres unmarked) [Compound 144, N-(1-(1-cyano-3-phenylpentan-3-yl)-6-fluoro-1H-indazol-4-yl)methanesulfonamide] | < 100
CCC(C1=C(C#N)CCO1)(c1ccc(Cl)cc1)n1ccc2c(NS(C)(=O)=O)cccc21 (centres unmarked) [Compound 147, N-(1-(1-(4-Chlorophenyl)-1-(3-cyano-4,5-dihydrofuran-2-yl)propyl)-1H-indol-4-yl)methane-sulfonamide] | 100 to 500
CCC(CC(F)(F)F)(c1ccc(Cl)cc1)n1ncc2c(NS(C)(=O)=O)cccc21 (centres unmarked) [Compound 159, N-(1-(3-(4-chlorophenyl)-1,1,1-trifluoropentan-3-yl)-1H-indazol-4-yl)methanesulfonamide] | < 100
CCC(CC#N)(c1ccc(Cl)cc1)n1ccc2c(NS(C)(=O)=O)cc(F)cc21 (single isomer, unassigned) [Compound 125, N-(1-(2-(4-chlorophenyl)-1-cyanobutan-2-yl)-6-fluoro-1H-indol-4-yl)methanesulfonamide] | < 100
CCC(c1ccc(Cl)cc1)(c1nnc(-c2ccc(Cl)cc2)o1)n1ccc2c(NS(C)(=O)=O)cccc21 (centres unmarked) [Compound 71, N-(1-{1-(4-chlorophenyl)-1-[5-(4-chlorophenyl)-1,3,4-oxadiazol-2-yl]propyl}-1H-indol-4-yl)methanesulfonamide] | < 100
CCC(CCC#N)(c1ccc(Cl)cc1)n1ccc2c(NS(C)(=O)=O)cc(F)cc21 (single isomer, unassigned) [Compound 142, N-(1-(3-(4-chlorophenyl)-1-cyanopentan-3-yl)-6-fluoro-1H-indol-4-yl)methanesulfonamide] | < 100
CS(=O)(=O)Nc1cccc2c1ccn2C1(c2ccc(Cl)cc2)CCNC1=O (centres unmarked) [Compound 84, N-{1-[3-(4-chlorophenyl)-2-oxopyrrolidin-3-yl]-1H-indol-4-yl}methanesulfonamide] | 100 to 500
CCC(/C=C/C#N)(c1ccc(Cl)cc1)n1ncc2c(N(S(C)(=O)=O)S(C)(=O)=O)cc(F)cc21 (centres unmarked) [Compound 136, (E)-N-(1-(3-(4-chlorophenyl)-1-cyanopent-1-en-3-yl)-6-fluoro-1H-indazol-4-yl)-N-(methylsulfonyl)methanesulfonamide] | < 100
CS(=O)(=O)Nc1cccc2c1ccn2C(c1ccc(Cl)cc1)c1nc(-c2ccccc2)no1 (centres unmarked) [Compound 63, N-{1-[(4-chlorophenyl)(3-phenyl-1,2,4-oxadiazol-5-yl)methyl]-1H-indol-4-yl}methanesulfonamide] | 500 to 5000
COC(=O)C(c1cccc(-c2cccc(OC)c2)c1)n1ccc2c(NS(C)(=O)=O)cccc21 (centres unmarked) [Compound 78] | 500 to 5000
CCC(/C=C/C#N)(c1ccc(Cl)cc1)n1ncc2c(NS(C)(=O)=O)cc(F)cc21 (centres unmarked) [Compound 130, (E)-N-(1-(3-(4-chlorophenyl)-1-cyanopent-1-en-3-yl)-6-fluoro-1H-indazol-4-yl)methanesulfonamide] | < 100
CCC(c1ccc(Cl)cc1)(n1ncc2c(NS(=O)(=O)NC)cccc21)C(C)(C)O (centres unmarked) [Compound 94] | < 100
COC(=O)C(c1ccc(F)cc1Cl)n1ccc2cccc(F)c21 (centres unmarked) [Compound 15, methyl (2-chloro-4-fluorophenyl)(7-fluoro-1H-indol-1-yl)acetate] | 500 to 5000

Next, values leading:

IC50 [nM] | SMILES
< 100 | COC(=O)CC(C(=O)OC)(c1ccc(Cl)cc1)n1ccc2c(NS(C)(=O)=O)cccc21 (centres unmarked) [Compound 35, Dimethyl 2-(4-chlorophenyl)-2-{4-[(methylsulfonyl)amino]-1H-indol-1-yl}butanedioate]
500 to 5000 | CCC(C(=O)NCCc1ccccc1)(c1ccc(Cl)cc1)n1ccc2c(NS(C)(=O)=O)cccc21 (centres unmarked) [Compound 50, 2-(4-chlorophenyl)-2-{4-[(methylsulfonyl)amino]-1H-indol-1-yl}-N-(2-phenylethyl)butanamide]
< 100 | CCC(C(=O)CC#N)(c1ccc(Cl)cc1)n1ccc2c(NS(C)(=O)=O)cccc21 (single isomer, unassigned) [Compound 146, N-(1-(3-(4-Chlorophenyl)-1-cyano-2-oxopentan-3-yl)-1H-indol-4-yl)methanesulfonamide]
< 100 | CCC(CCC#N)(c1ccc(OC)cc1)n1ccc2c(NS(C)(=O)=O)cccc21 (centres unmarked) [Compound 139, N-(1-(1-cyano-3-(4-methoxyphenyl)pentan-3-yl)-1H-indol-4-yl)methanesulfonamide]
100 to 500 | CC[C@](C(=O)NC1CC1)(c1ccc(Cl)cc1)n1ccc2c(NS(C)(=O)=O)cccc21 [Compound 41, (R)-2-(4-chlorophenyl)-N-cyclopropyl-2-{4-[(methylsulfonyl)amino]-1H-indol-1-yl}butanamide]
< 100 | CCC(c1ccc(C(F)(F)F)cc1)(n1ncc2c(NS(C)(=O)=O)cccc21)C(C)(C)O (single isomer, unassigned) [Compound 93, N-(1-(2-hydroxy-2-methyl-3-(4-(trifluoromethyl)phenyl)pentan-3-yl)-1H-indazol-4-yl)methane sulfonamide]
100 to 500 | CC(C)(C)OC(=O)C(CC#N)(c1ccc(Cl)cc1)n1ccc2c(NS(C)(=O)=O)cccc21 (centres unmarked) [Compound 27, tert-Butyl 2-(4-chlorophenyl)-3-cyano-2-{4-[(methylsulfonyl)amino]-1H-indol-1-yl}propanoate]
< 100 | CCC(CCSC)(c1ccc(Cl)cc1)n1ccc2c(NS(C)(=O)=O)cccc21 (centres unmarked) [Compound 166, N-(1-(3-(4-chlorophenyl)-1-(methylthio)pentan-3-yl)-1H-indol-4-yl)methanesulfonamide]
< 100 | CCC(CCCF)(c1ccc(Cl)cc1)n1ccc2c(NS(C)(=O)=O)cccc21 (centres unmarked) [Compound 170, N-(1-(3-(4-chlorophenyl)-6-fluorohexan-3-yl)-1H-indol-4-yl)methanesulfonamide]
100 to 500 | CCC(C(C)=O)(c1ccc(C(F)(F)F)cc1)n1ccc2c(NS(C)(=O)=O)cccc21 (single isomer, unassigned) [Compound 103, N-(1-(2-oxo-3-(4-(trifluoromethyl)phenyl)pentan-3-yl)-1H-indol-4-yl)methanesulfonamide]
100 to 500 | CCC(CC)(c1ccc(Cl)cc1)n1ccc2c(NS(C)(=O)=O)cccc21 [Compound 174, N-(1-(3-(4-chlorophenyl)pentan-3-yl)-1H-indol-4-yl)methanesulfonamide]
< 100 | CCC(c1ccc(C(F)(F)F)cc1)(C(C)O)n1ccc2c(NS(C)(=O)=O)cccc21 (single isomer, unassigned) [Compound 114, N-(1-(2-hydroxy-3-(4-(trifluoromethyl)phenyl)pentan-3-yl)-1H-indol-4-yl)methanesulfonamide]
100 to 500 | CCC(c1ccc(Cl)cc1)(c1nnc(-c2ccc(C(F)(F)F)cc2)o1)n1ccc2c(NS(C)(=O)=O)cccc21 (centres unmarked) [Compound 73, N-{1-[1-(4-chlorophenyl)-1-{5-[4-(trifluoromethyl)phenyl]-1,3,4-oxadiazol-2-yl}propyl]-1H-indol-4-yl}methanesulfonamide]
